Experimental data as given in PMC9923724, “Half sandwich-type osmium, ruthenium, iridium and rhodium complexes with bidentate glycosyl heterocyclic ligands induce cytostasis in platinum-resistant ovarian cancer cells and bacteriostasis in Gram-positive multiresistant bacteria” (Frontiers in Chemistry, 2023).
Read-outs that look alike come from different tables or passages of the source.

How the values were obtained:
[1] = test system: A2780 ovarian cancer cells; experiment: SRB assay (cytostasis, 48 h) on A2780 cells; assay type: cell-based; settings: 48 h treatment
Description: (§1) First, we assessed a set of osmium complexes (similar to Ia [[Kacsir et al., 2022]) in Figure 1] and their sugar-derived ligands, in which the benzoyl protective groups on the carbohydrate moiety were replaced by aliphatic acyl groups of different chain length (straight chain C3-C7–CO). Osmium was selected as a central ion, since osmium complexes had the best biological activity in our previous studies ([Balázs et al., 2022]; [Kacsir et al., 2022]). These compounds were tested on A2780 ovarian cancer cells for toxicity and cytostasis. The therapy of ovarian cancer is centered around platinum compounds ([Brown et al., 2019]; [Sipos et al., 2021]), therefore, it was logical to use a cellular model of ovarian cancer for the initial testing of the compounds. Toxicity was assessed using the MTT assay that measures the activity of mitochondrial complex I. We chose 4 h long treatment as in an MTT assay this time point is suitable to detect rapid, direct toxicity. Cytostasis was assessed after 48 h of treatment using the SRB assay that assesses protein content that corresponds to cell count. The characteristics of the compounds are detailed in Table 2.
(§2) 3 × 10^3 A2780 cells, were plated to 96 well plates. Cells were treated with the compounds in the concentrations indicated for either 4 h for an MTT assay or for 48 h for an SRB assay. Data is represented as average ± SD, from three biological replicates; individual assays were performed in duplicates. Values were normalized for vehicle treated cells, absorbance for vehicle treated cells equals to 1. […] Except for the Os-6 complex, Two-way ANOVA test was performed and all values were compared with each other (Tukey’s post hoc test). […] Non-linear regression was performed on the data.
(§3) 3 × 10^3 A2780 cells, 2 × 10^3 ID8 cells and 4 × 10^3 primary fibroblasts were plated to 96 well plates. Cells were treated with the compounds in the concentrations indicated for either 4 h for an MTT assay or for 48 h for an SRB assay. Data is represented as average ± SD, from three biological replicates; individual assays were performed in duplicates. Values were normalized for vehicle treated cells, absorbance for vehicle treated cells equals to 1. Statistical significance was assessed using two-way ANOVA test comparing the free ligand and each complex as a complex-ligand pair. Before the test normality was assessed using the D’Agostino-Pearson test. The ID8 SRB Ir-7+L-7 dataset had lognormal distribution. […] All other datasets had normal distribution. For better visibility the p values are presented in an excel sheet at https://figshare.com/s/2c942a812caea8869a67. Non-linear regression was performed on the A2780 SRB and the ID8 SRB datasets.
(§4) The assay was performed similar to ([Kovács et al., 2019]). Cells were seeded in 96 well plates the day before the assay. Cells were treated with the compounds for 48 h. Cells were fixed with 10% trichloroacetic acid (TCA). Fixed cells were washed in distilled water 3 times followed by staining with SRB (0.4 m/V% dissolved in 1% acetic acid) for 10 min. Stained cells were washed in 1% acetic acid 5 times; acetic acid was removed and cells were left to dry. Protein-bound SRB was released by adding 100 µl 10 mM Tris base. Plates were measured in a plate photometer (Thermo Scientific Multiscan GO spectrophotometer, Waltham, MA, United States) at 540 nm. On each plate wells were designed to contain vehicle-treated cells. In calculations the readings for these wells was considered as 1 and all readings were expressed relative to these values.
Statistical analysis was performed using 8.0.1 version of Graphpad Prism. Values were tested for normal distribution using the D’Agostino and Pearson normality test. When necessary, values were log normalized or were normalized using the Box-Cox normalization method ([Box and Cox, 1964]) as indicated in the figure captions. […]

[2] = test system: primary dermal fibroblasts; experiment: MTT reduction assay (4 h) on primary fibroblasts; assay type: cell-based; settings: primary human dermal fibroblasts
Description: as §3
Human primary dermal fibroblasts were cultured in low glucose DMEM (1 g/L glucose) medium supplemented with 20% fetal calf serum, 2 mM glutamine, 1% penicillin-streptomycin.
(§5) MTT reduction assay measures the activity of mitochondrial complex I and can be used to detect toxicity ([Virág et al., 1998]; [Henslee et al., 2016]). The assay was performed similar to ([Bakondi et al., 2003]). Briefly, cells were plated in 96 well plates the day before the assay. Cells were treated with the compounds for 4 h, then MTT was added in 0.5 mg/ml final concentration and cells were incubated at 37°C in a cell incubator. Culture media was removed and the reduced MTT dye was dissolved in dimethyl-sulfoxide (DMSO) and plates were measured in a plate photometer (Thermo Scientific Multiscan GO spectrophotometer, Waltham, MA, United States) at 540 nm. On each plate wells were designed to contain untreated/vehicle-treated cells. In calculations the readings for these wells was considered as 1 and all readings were expressed relative to these values.

[3] = test system: A2780 ovarian cancer cells; experiment: MTT reduction assay (rapid toxicity, 4 h) on A2780 cells; assay type: cell-based; settings: 4 h treatment
Description: as §1, §2, §3, §5

[4] = test system: cisplatin resistant A2780 cells; experiment: SRB assay (48 h) on cisplatin-resistant A2780 cells; assay type: cell-based
Description: 6 × 10^3 cisplatin-resistant A2780 cells were plated to 96 well plates. Cells were treated with the compounds in the concentrations indicated for either 4 h for an MTT assay or for 48 h for an SRB assay. Data is represented as average ± SD, from three biological replicates; individual assays were performed in duplicates. Values were normalized for vehicle treated cells, absorbance for vehicle treated cells equals to 1. Each compound was assessed individually. Normality was assessed using the Shapiro-Wilk test. […] Statistical significance was assessed using One-way ANOVA test comparing all points to the smallest concentration. For better visibility the p values are presented in an excel sheet at https://figshare.com/s/2c942a812caea8869a67. Non-linear regression was performed on the results of the SRB assay datasets.
Cisplatin resistant cells underwent selection (1 µM cisplatin) once a week for 3 days before plating for any assay.
as §4
Statistical analysis was performed using 8.0.1 version of Graphpad Prism. Values were tested for normal distribution using the D’Agostino and Pearson normality test. When necessary, values were log normalized or were normalized using the Box-Cox normalization method ([Box and Cox, 1964]) as indicated in the figure captions.

[5] = test system: A2780 ovarian cancer cells; settings: ref Kacsir et al., cited from earlier work
[6] = test system: multiresistant bacteria (Staphylococcus aureus, Enterococcus species); design: method as in Balázs et al., 2022; settings: ref Balázs et al., 2022; cited from earlier work
[7] = Solubility / precipitation observed during testing; assay type: physicochemical; settings: free ligand in cell assays
Description: In concentrations exceeding 33.3 µM the complexes frequently precipitated. All of the complexes and the free ligand exerted little rapid cytotoxicity in MTT assays, not more than 35% in any of the cell lines assessed in the peak concentration, except for the Os-7 complex with 75% toxicity on ID8 cells (Figure 5; Table 2). […] The complexes were more efficient in ID8 cells as compared to A2780 cells (Figure 5; Table 2). […] On primary non-transformed fibroblasts, used as controls, the complexes exerted negligible toxicity and low cytostatic activity (Figure 5; Table 2). The cytostatic activity was not more than 50% in the peak concentration.

[8] = test system: Staphylococcus aureus (ATCC29213); experiment: Broth microdilution MIC, Staphylococcus aureus reference strain; assay type: cell-based
Description: (§6) The MIC values of the complexes were determined against the reference strains of S. aureus (ATCC29213) and E. faecalis. (ATCC29212) and against clinical VRE and MRSA isolates by microdilution assays (repeated at least twice in duplicates) as described in Materials and Methods. The numbers indicate how many isolates were susceptible to the compound out of those tested; i.e., 1/6 stands for 1 isolate was susceptible out of 6 tested. […] Cells were harvested and lysed. Cellular proteins was separated on a 10% SDS-PAGE gel and were blotted. Blots were probed with 4HNE antibody (top blot), the lower blot was stained with amido black. Arrows point at band of interest. Experiments were repeated three times and a representative blot is shown. On the blots brightness and contrast were adjusted. […] Each was matched to a substance and strain by its position over the x-axis categories. / Ir-7: ND and 0/3 (left plot) and ND and 0/6 (right plot) were matched to E. faecalis/VRE and S. aureus/MRSA by position only.
(§7) We used the reference strains of Staphylococcus aureus (ATCC29213), and Enterococcus faecalis (ATCC29212) that were purchased from ATCC (Manassas, VA, United States).
(§8) Microdilution experiments were performed according to the standards of EUCAST ([EUCAST, 2021]). […] The inoculated plates were incubated for 24 h at 37°C then were assessed visually. […] All experiments were performed at least twice in duplicates.

[9] = Determination of the distribution coefficients (logD); assay type: physicochemical; settings: distribution coefficient
[10] = test system: vancomycin-resistant Enterococcus (VRE) clinical isolates; experiment: Broth microdilution MIC, clinical VRE isolates; assay type: cell-based, E. faecium
Description: as §6
(§9) We used a set of clinical isloates of S. aureus and E. faecium that were collected at the Medical Center of the University of Debrecen (Hungary) between 01. 01. 2018.—31. 12. 2020. The clinical isolates were identified using a Microflex MALDI-TOF mass spectrometer (Bruker, Billerica, MA, United States). Antibiotic susceptibility of the isolates was tested following the European Committee on Antimicrobial Susceptibility Testing ([EUCAST, 2021]) guidelines valid at the time of collection.
as §8

[11] = test system: methicillin-resistant Staphylococcus aureus (MRSA) clinical isolates; experiment: Broth microdilution MIC, clinical MRSA isolates; assay type: cell-based
Description: as §6, §9, §8

[12] = test system: Enterococcus faecalis (ATCC29212); experiment: Broth microdilution MIC, Enterococcus faecalis reference strain; assay type: cell-based; settings: Enterococcus faecalis ATCC29212, 24 h
Description: as §6, §7, §8

[13] = cisplatin resistant A2780 cells, SRB, 48 h

## Cc1c(C)c(C)[c-](C)c1C.F[P-](F)(F)(F)(F)F.O=C(OCC1OC(n2cc(-c3ccc4ccccc4n3)nn2)C(OC(=O)c2ccccc2)C(OC(=O)c2ccccc2)C1OC(=O)c1ccccc1)c1ccccc1.[Cl][Rh+2] (mixture of isomers) [Rh-7]
[1]
  A2780 SRB Max. (maximal inhibition): 47.9%
[2]
  Fibroblast MTT Max. (maximal inhibition): 15.09%
[3]
  A2780 MTT Max. (maximal inhibition): 18.3%

## N.N.[Cl][Pt][Cl] [Cisplatin, cisplatin, reference compound]
[4]; SRB assays, resistant / sensitive A2780
  fold change of IC50, cisplatin resistant vs cisplatin sensitive A2780: 13.6 fold
[4]; [13]
  IC50: 16.5 µM
  cisplatin resistant A2780 SRB Max. (maximal inhibition): >90%
[5]; A2780 cells, SRB, 2021
  A2780 SRB Max. (maximal inhibition), cisplatin: >90%
[5]; cisplatin-sensitive A2780 cells, SRB, 2021, read-out: A2780 SRB IC50, cisplatin
  IC50: 1210 nM

## Cc1ccc(C(C)C)cc1.F[P-](F)(F)(F)(F)F.O=C(OCC1OC(n2cc(-c3ccccn3)nn2)C(OC(=O)c2ccccc2)C(OC(=O)c2ccccc2)C1OC(=O)c1ccccc1)c1ccccc1.[Cl][Os+] (mixture of isomers) [Ia]
[5]; A2780 cells, 2022, read-out: IC50 against A2780 ovarian cancer
  IC50: 730 nM
[6]
  MIC on multiresistant bacteria: 0.3 to 5.0 µM

## CCCCCCCC(=O)OC[C@H]1O[C@@H](n2cc(-c3ccccn3)nn2)[C@H](OC(=O)CCCCCCC)[C@@H](OC(=O)CCCCCCC)[C@@H]1OC(=O)CCCCCCC [L-6]
[7]
  solubility (suitability for testing): insoluble

## CCCCCC(=O)OCC1OC(n2cc(-c3ccccn3)nn2)C(OC(=O)CCCCC)C(OC(=O)CCCCC)C1OC(=O)CCCCC.Cc1ccc(C(C)C)cc1.F[P-](F)(F)(F)(F)F.[Cl][Os+] (mixture of isomers) [Os-4]
[8]; Staphylococcus aureus ATCC29213, 24 h
  MIC, Reference S. aureus: 40< µM
[8]; reference strain ATCC29213
  MIC (μM) (S. aureus), Figure 11: ND (ND—not detected, MIC>40 µM)
[9]
  LogD: 2.7
[1]
  A2780 SRB Max. (maximal inhibition): >90%
  IC50: 3.87 µM
[10]; 3 isolates tested, susceptible = MIC up to 40 µM
  VRE isolates susceptible out of those tested: 3/3
[10]; clinical isolate 25 051, nephrostoma, 2018
  MIC, VRE 25 051: 40 µM
[10]; clinical isolate 25 498, rectal swab, 2018
  MIC, VRE 25 498: 40 µM
[10]; clinical isolate 27 085, wound, 2018
  MIC, VRE 27 085: 40 µM
[11]; 6 isolates tested, susceptible = MIC up to 40 µM
  MRSA isolates susceptible out of those tested: 1/6
[11]; clinical isolate 20 426, blood, 2020
  MIC, MRSA 20 426: 40< µM
[11]; clinical isolate 24 035, wound, 2018
  MIC, MRSA 24 035: 40< µM
[11]; clinical isolate 24 268, throat, 2018
  MIC, MRSA 24 268: 40< µM
[11]; clinical isolate 24 272, throat, 2018
  MIC, MRSA 24 272: 40< µM
[11]; clinical isolate 24 328, throat, 2018
  MIC, MRSA 24 328: 40< µM
[11]; clinical isolate 24 408, bronchial, 2018
  MIC, MRSA 24 408: 40 µM
[3]
  A2780 MTT Max. (maximal inhibition): 84.4%
[12]
  MIC, Reference E. faecalis: 40 µM
